Consider three compounds from patent US6617360B1, “Medical treatment” (Knoll Aktiengesellschaft, priority 1996, dated 2003).

One test relates to L6 muscle cells. In words: [3H]-2-deoxyglucose (2DG) uptake in L6 muscle cells with and without added insulin (Study 1). The test is classed as cell-based. On the procedure:
L6 Muscle cells were obtained from the European Culture Collection (Porton Down) and were used at passages 7-11. Cells were maintained in standard tissue culture medium DMEM, and glucose uptake was assessed using [^3H]-2-deoxyglucose (2DG) with and without the presence of added insulin (10^−8 M) as has been previously described (Walker P S et al, Glucose transport activity in L6 muscle cells is regulated by the coordinate control of subcellular glucose transporter distribution, biosynthesis, and mRNA transcription, JBC, 1990;265(3), 1516-1523, and Kilp A et al, Stimulation of hexose transport by metformin in L6 muscle cells in culture, Endocrinology, 1992;130(5), 2535-2544).
Uptake of 2DG was expressed as the percentage change compared with control. Values are presented as mean±SEM of sets of 4 wells per experiment. Differences between sets of wells were evaluated by Student's t test, probability values p<0.05 were considered to be significant. […] In the presence of added insulin (10^−8 M), significant increases in 2DG uptake were observed following 24 hour incubation with the compound of formula I in which R1 and R2 are both methyl (sibutramine hydrochloride monohydrate) at 10^−8 M (from 149.9±4.3 to165.3±2.6), the compound of formula I in which R1 is methyl and R2 is H at 10^−7 M (from 147.3±3.0 to 160.7±4.5), and the compound of formula I in which R1 and R2 are both H, at 10^−7 M and 10^−6 M (from 149.1±3.9 to 161.8±3.3 and 165.2±3.6 respectively).

Test [1] relates to ob/ob mice (Aston Strain). Description: 6 weeks of treatment (5 mg/kg/day po) and 6 weeks of withdrawal in young ob/ob mice: body weight, plasma insulin, ip glucose tolerance test, insulin hypoglycaemia test (Study 3). The test is classed as in vivo. On the procedure: Young ob/ob mice (Aston Strain) were randomised into 3 groups as follows: control, receiving placebo treatment (phosphate buffered saline 2.5 ml/kg/day po); sibutramine hydrochloride monohydrate-treated (5 mg/kg/day po); and pair-fed control, supplied with the same daily food intake as that consumed by the sibutramine hydrochloride monohydrate-treated group on the previous day. There was a 1 week run-in period followed by 6 weeks of treatment. Body weight and food intake were monitored every 1 to 2 days, and blood samples for plasma glucose and insulin were taken from the tail vein at weekly intervals in the non-fasted state at 11 a.m. An ip glucose tolerance test (D-glucose, 2 g/kg in 40% w/v solution in distilled water) and an insulin hypoglycaemia test (Actrapid, Novo-Nordisk, 2.5 u/kg ip) were conducted after 5 weeks of treatment. Food was withheld only for the duration of these tests (approx. 4 hours). The basal blood samples and the test procedures were undertaken 18 hours after the last treatment administration.
Treatment was stopped after 6 weeks, and the mice were monitored for the next 6 weeks. The pair-fed mice continued to be pair-fed with respect to the sibutramine hydrochloride monohydrate withdrawal group. A second insulin hypoglycaemia test was conducted 4 weeks after treatment was stopped. Plasma glucose was determined by an automated glucose oxidase procedure (Beckman) and plasma insulin determined by radioimmunnoassay (Amerlex, Amersham).

Test [2] relates to ob/ob mice (Aston Strain). Description: Chronic administration (10 mg/kg po) and withdrawal in obese ob/ob mice: plasma glucose, plasma insulin, body weight, food intake (Study 2). The test is classed as in vivo. On the procedure: Studies were performed in obese ob/ob mice (Aston Strain) which are a model of severe insulin resistance and are also hyperglycaemic. The derivation and characteristics of this animal model have been previously described (Flatt P R, Bailey C J, Development of glucose intolerance and impaired plasma insulin response to glucose in obese hyperglycaemic (ob/ob) mice, Horm Metab Res 1981;13:556-560, and Bailey C J et al, Influence of genetic background and age on the expression of the obese hyperglycaemic syndrome in Aston ob/ob mice, Int J Obesity, 1982;6:11-21).
The ob/ob mice were individually housed in polypropylene cages at a temperature of 21±1° C. and 55% humidity. The mice had free access to a standard rat and mouse pelleted diet (Compound Rat and Mouse Diet, Special Diet Services, Witham, Essex) and tap water at all times. Animals were maintained on a reverse phase light-dark cycle. Lights were off between 09.00 h and 17.00 h in the acute experiment and between 10.00 h and 18.00 h in the chronic experiment. During this time the laboratory was illuminated by red lamps. Animals were acclimatised to these conditions for at least two weeks before experimentation.
All animals were given deionised water (at the start of the dark period) for 7 days. Body weight and food intake were measured daily. Blood samples were taken immediately before daily administration of vehicle (deionised water 10 ml/kg po) or compound of formula I in which R1 and R2 are both methyl (sibutramine hydrochloride monohydrate; 10 mg/kg po) on day 1 (baseline) and after 14 and 28 days of treatment (on day 15 and day 29 respectively). Blood samples were also taken 14 days following withdrawal of the sibutramine hydrochloride monohydrate (on day 43 of the study). Plasma glucose was determined by a glucose oxidase procedure (Analox GM7) and plasma insulin determined by radioimmunoassay (Amerlex, Amersham).

[3] abbreviates: added insulin 10^−8 M, 24 hour incubation, compound 10^−7 M, insulin alone 147.3±3.0 (R1 methyl, R2 H) or 149.1±3.9 (both H), mean±SEM.
[4] abbreviates: 6 week withdrawal period after 5 mg/kg/day po, vs vehicle treated group, for almost all of the period.
The mark [5] stands for this setting: compound group, day 1 of study, prior to treatment (baseline), mean ± SEM.

As for `CC(C)CC(N)C1(c2ccc(Cl)cc2)CCC1` (stereo not drawn) [1-[1-(4-chlorophenyl)cyclobutyl]-3-methylbutylamine], the “Uptake of 2DG, percentage change compared with control” value (shortened to “Uptake of 2DG, percentage change”) in the test on L6 muscle cells (absence of added insulin, 24 hours incubation, compound 10^−6 M, control 100±2.1, mean±SEM) is 134±7.3%; in the test with L6 muscle cells (absence of added insulin, 24 hours incubation, compound 10^−7 M, control 100±2.1, mean±SEM) it was 123.9±4.3%; in the test with L6 muscle cells (absence of added insulin, 24 hours incubation, compound 10^−8 M, control 100±2.1, mean±SEM), 116.9±3.8%; in the test with L6 muscle cells (added insulin 10^−8 M, 24 hour incubation, compound 10^−6 M, insulin alone 149.1±3.9, mean±SEM), 165.2±3.6%; in the test with L6 muscle cells (setting [3]) it was 161.8±3.3%.

With `CNC(CC(C)C)C1(c2ccc(Cl)cc2)CCC1` (stereo not drawn) [N-{1-[1-(4-chlorophenyl)cyclobutyl]-3-methylbutyl}-N-methylamine], the “Uptake of 2DG, percentage change” value in the test on L6 muscle cells (setting [3]) was determined as 160.7±4.5%.

Regarding `CC(C)CC(N(C)C)C1(c2ccc(Cl)cc2)CCC1.Cl.O` (stereo not drawn) [sibutramine hydrochloride monohydrate, N,N-dimethyl-1-[1-(4-chlorophenyl)cyclobutyl]-3-methylbutylamine hydrochloride monohydrate], in test [1] (5 mg/kg/day po, after 5 weeks of treatment, D-glucose 2 g/kg ip, vs vehicle, P<0.05, FIG. 1), the “Plasma insulin in ip glucose tolerance test (in words)” value is given as “significant reductions”. Also, in test [1] (5 mg/kg/day po, after 5 weeks of treatment, D-glucose 2 g/kg ip, vs vehicle, P<0.05, FIG. 2), the “Plasma glucose in ip glucose tolerance test (in words)” value was “significant reductions”. The “Insulin hypoglycaemia test (in words)” value in test [1] (5 mg/kg/day po, at 5 weeks, insulin 2.5 u/kg ip, vs vehicle, P<0.05, FIG. 3) is “Significant improvements”. For the same compound, the “Body weight (in words)” value in test [1] (5 mg/kg/day po, during 6 weeks of treatment, compared to vehicle) was “significant reduction”; in test [1] (setting [4]), “remained significantly lower”; in test [2] (10 mg/kg po daily, vs vehicle), “No significant changes”. Besides, the “Plasma insulin (in words)” value in test [1] (5 mg/kg/day po, during 6 weeks of treatment, non-fasted, compared to vehicle) is given as “significant reduction”; in test [1] (setting [4]) it was “remained significantly lower”; in test [2] (10 mg/kg po daily, tended to fall on treatment and increased on withdrawal), “No significant changes”. The “Plasma glucose (in words)” value in test [2] (10 mg/kg po daily, after 14 and 28 days of treatment, significant difference from control at day 28 (P<0.01)) is “fell”; in test [2] (after 14 days of drug withdrawal, rose to control values) it was “rose significantly”. Also, the Plasma glucose in test [2] (10 mg/kg po daily, day 15 of study (14 days of treatment), vehicle 21.7 ± 0.9, mean ± SEM) is 19.0 ± 0.6 mmol/L; in test [2] (10 mg/kg po daily, day 29 of study (28 days of treatment), vehicle 26.0 ± 1.4, **P < 0.01 vs vehicle, mean ± SEM) it was 15.8 ± 0.7** mmol/l; in test [2] (setting [5]), 24.3 ± 0.6 mmol/L; in test [2] (day 43 of study, 14 days after drug withdrawal, vehicle 22.9 ± 1.7, mean ± SEM), 23.6 ± 1.2 mmol/L. The Plasma insulin in test [2] (10 mg/kg po daily, day 15 of study (14 days of treatment), vehicle 49.7 ± 3.5, mean ± SEM) amounted to 45.1 ± 2.6 ng/mL; in test [2] (10 mg/kg po daily, day 29 of study (28 days of treatment), vehicle 46.2 ± 4.5, mean ± SEM), 35.1 ± 2.7 ng/mL; in test [2] (setting [5]), 92.0 ± 4.5 ng/mL; in test [2] (day 43 of study, 14 days after drug withdrawal, vehicle 40.6 ± 8.6, mean ± SEM), 77.1 ± 11.3 ng/mL. Moreover, the “Food intake (in words)” value in test [2] (10 mg/kg po daily, vs vehicle) was “No significant changes”. In addition, the “Uptake of 2DG, percentage change” value in the test with L6 muscle cells (added insulin 10^−8 M, 24 hour incubation, compound 10^−8 M, insulin alone 149.9±4.3, mean±SEM) stood at 165.3±2.6%.
